# Source: ChEMBL document CHEMBL3124755, “Synthesis and tumor inhibitory activity of novel coumarin analogs targeting angiogenesis and apoptosis” (Eur J Med Chem, 2014)
# Calls of active or inactive are those of the source. The rule behind the calls is not given here.
# Legend:
# [1] = (§1) Cytotoxicity against mouse DLA cells after 48 hrs by LDH release assay; format: functional, cell-based
# [2] = (§2) Cytotoxicity against mouse EAC cells after 48 hrs by LDH release assay; format: functional, cell-based; settings: Ehrlich
# [3] = Cytotoxicity against mouse EAC cells after 48 hrs by trypan blue exclusion assay; format: functional, cell-based; settings: Ehrlich
# [4] = Cytotoxicity against mouse DLA cells after 48 hrs by trypan blue exclusion assay; format: functional, cell-based
# [5] = Cytotoxicity against mouse EAC cells after 48 hrs by MTT assay; format: functional, cell-based; settings: Ehrlich
# [6] = Cytotoxicity against mouse DLA cells after 48 hrs by MTT assay; format: functional, cell-based
# [7] = Antitumor activity against mouse EAC cells allografted in Swiss albino mouse assessed as increase in life span at 75 mg/kg, ip 3 doses administered every alternate days after three days of tumor growth (reference value: 10 days); format: functional, Ehrlich; settings: route intraperitoneal
# [8] = Antitumor activity against mouse EAC cells allografted in Swiss albino mouse model assessed as increase in body weight at 75 mg/kg, ip 3 doses administered every alternate days after three days of tumor growth measured after 10 days; format: functional, Ehrlich; settings: route intraperitoneal
# [9] = tested on: Ehrlich; assay: Antitumor activity against mouse EAC cells allografted in Swiss albino mouse assessed as DNA fragmentation in tumor cells at 75 mg/kg, ip 3 doses administered every alternate days after three days of tumor growth; format: functional, organism-based; parameters: dose 75 mg/kg
# [10] = tested on: Ehrlich; assay: Antitumor activity against mouse EAC cells allografted in Swiss albino mouse assessed as decrease in ascites fluid secretion at 75 mg/kg, ip 3 doses administered every alternate days after three days of tumor growth; format: functional, organism-based; parameters: dose 75 mg/kg
# [11] = tested on: Ehrlich; assay: Antitumor activity against mouse EAC cells allografted in Swiss albino mouse assessed as membrane blebbing of tumor cells at 75 mg/kg, ip 3 doses administered every alternate days after three days of tumor growth by Giemsa staining; format: functional, organism-based; parameters: dose 75 mg/kg
# [12] = tested on: DLA; assay: as §1; format: functional, cell-based
# [13] = tested on: Mus musculus; assay: Toxicity in Swiss albino mouse assessed as alkaline phosphatase level at 75 mg/kg, ip administered for 10 days (reference value: 128.55 +/- 2.55 IU/L); format: organism-based; parameters: dose 75 mg/kg, route intraperitoneal; settings: in vivo, 240 h
# [14] = tested on: DLA; assay: Antitumor activity against mouse DLA cells allografted in Swiss albino mouse assessed as tumor regression at 75 mg/kg, ip administered alternate days total of 10 doses measured on day 35 relative to untreated control; format: functional, organism-based; parameters: dose 75 mg/kg
# [15] = tested on: Chorioallantoic membrane; assay: Ex vivo antiangiogenic activity in 2 days fertilized chicken embryo chorioallantoic membrane model assessed as inhibition of rVEGF165-induced angiogenesis at 10 uM after 72 hrs by photographic analysis relative to control; format: functional, tissue-based; settings: Gallus gallus
# [16] = tested on: DLA; assay: Antitumor activity against mouse DLA cells allografted in Swiss albino mouse assessed as inhibition of tumor growth measuring tumor volume at 75 mg/kg, ip administered alternate days total of 10 doses relative to untreated control; format: functional, organism-based; parameters: dose 75 mg/kg
# [17] = tested on: Ehrlich; assay: as §2; format: functional, cell-based
# [18] = tested on: Ehrlich; assay: Antitumor activity against mouse EAC cells allografted in Swiss albino mouse assessed as inhibition of tumor growth at 75 mg/kg, ip 3 doses administered every alternate days after three days of tumor growth; format: functional, organism-based; parameters: dose 75 mg/kg
# [19] = tested on: Mus musculus; assay: Antiangiogenic activity in mouse EAC cells allografted Swiss albino mouse model assessed as decrease in peritoneal angiogenesis at 75 mg/kg, ip 3 doses administered every alternate days after three days of tumor growth; format: functional, organism-based; parameters: dose 75 mg/kg; settings: Ehrlich
# [20] = tested on: Ehrlich; assay: Antitumor activity against mouse EAC cells allografted in Swiss albino mouse assessed as irregular tumor cell shape at 75 mg/kg, ip 3 doses administered every alternate days after three days of tumor growth by Giemsa staining; format: functional, organism-based; parameters: dose 75 mg/kg
# [21] = tested on: Mus musculus; assay: Antiangiogenic activity in mouse EAC cells allografted Swiss albino mouse model assessed as decrease in microvessel density in peritoneum at 75 mg/kg, ip 3 doses administered every alternate days after three days of tumor growth by hematoxylin and eosin staining method; format: functional, organism-based; parameters: dose 75 mg/kg; settings: Ehrlich
# [22] = tested on: Ehrlich; assay: Antitumor activity against mouse EAC cells allografted in Swiss albino mouse assessed as condensed nucleus in tumor cells at 75 mg/kg, ip 3 doses administered every alternate days after three days of tumor growth; format: functional, organism-based; parameters: dose 75 mg/kg
# [23] = Antitumor activity against mouse DLA cells allografted in Swiss albino mouse assessed as increase in lifespan at 75 mg/kg, ip administered alternate days total of 10 doses relative to untreated control; format: functional; settings: route intraperitoneal
# [24] = tested on: Ehrlich; assay: Antitumor activity against mouse EAC cells allografted in Swiss albino mouse assessed as formation of apoptotic bodies in tumor cells at 75 mg/kg, ip 3 doses administered every alternate days after three days of tumor growth by Giemsa staining; format: functional, organism-based; parameters: dose 75 mg/kg
# [25] = tested on: Mus musculus; assay: Toxicity in Swiss albino mouse assessed as urea level at 75 mg/kg, ip administered for 10 days (reference value: 42 +/- 2.78 mg/dl); format: organism-based; parameters: dose 75 mg/kg, route intraperitoneal; settings: in vivo, 240 h
# [26] = tested on: Mus musculus; assay: Toxicity in Swiss albino mouse assessed as creatinine level at 75 mg/kg, ip administered for 10 days (reference value: 0.59 +/- 1.05 mg/dl); format: organism-based; parameters: dose 75 mg/kg, route intraperitoneal; settings: in vivo, 240 h
# [27] = tested on: Chorioallantoic membrane; assay: In vivo antiangiogenic activity in 12 days fertilized chicken embryo chorioallantoic membrane model assessed as inhibition of rVEGF165-induced angiogenesis at 10 uM by photographic analysis relative to control; format: functional, organism-based; settings: Gallus gallus
# [28] = tested on: Mus musculus; assay: Toxicity in Swiss albino mouse assessed as change in liver morphology at 75 mg/kg, ip administered for 10 days relative to untreated control; format: organism-based; parameters: dose 75 mg/kg, route intraperitoneal; settings: in vivo, 240 h
# [29] = tested on: Ehrlich; assay: Antitumor activity against mouse EAC cells allografted in Swiss albino mouse assessed as tumor cell shrinkage at 75 mg/kg, ip 3 doses administered every alternate days after three days of tumor growth; format: functional, organism-based; parameters: dose 75 mg/kg
# [30] = tested on: Mus musculus; assay: Toxicity in Swiss albino mouse assessed as change in spleen morphology at 75 mg/kg, ip administered for 10 days relative to untreated control; format: organism-based; parameters: dose 75 mg/kg, route intraperitoneal; settings: in vivo, 240 h
# [31] = tested on: Ehrlich; assay: Antitumor activity against ip dosed mouse EAC cells allografted in Swiss albino mouse assessed as decrease in body weight administered 3 doses every alternate days after three days of tumor growth; format: functional, organism-based
smiles,measurement,setting,value
Cc1ccc(OCC(=O)NNC(=O)c2cc3ccccc3oc2=O)c(C(=O)c2cccc(Cl)c2)c1,IC50,[1],67.4 µM
same,IC50,[2],65.4 µM
same,IC50,[3],67.3 µM
same,IC50,[4],68.6 µM
same,IC50,[5],64.9 µM
same,IC50,[6],65.5 µM
O=c1[nH]cc(F)c(=O)[nH]1 [FLUOROURACIL],IC50,[1],15.8 µM
same,IC50,[2],16.3 µM
same,IC50,[3],16.4 µM
same,IC50,[4],14.3 µM
same,IC50,[5],14.3 µM
same,IC50,[6],15.7 µM
Cc1ccc(OCC(=O)NNC(=O)c2cc3ccccc3oc2=O)c(C(=O)c2cccc(Br)c2)c1,IC50,[1],69.8 µM
same,IC50,[2],68.1 µM
same,IC50,[3],68.5 µM
same,IC50,[4],71.9 µM
same,IC50,[5],66.4 µM
same,IC50,[6],68.5 µM
Cc1ccc(OCC(=O)NNC(=O)c2cc3ccccc3oc2=O)c(C(=O)c2ccc(Br)cc2)c1,IC50,[1],95.3 µM
same,IC50,[2],89 µM
same,IC50,[3],91.1 µM
same,IC50,[4],95.5 µM
same,IC50,[5],87.3 µM
same,IC50,[6],92.2 µM
Cc1ccc(OCC(=O)NNC(=O)c2cc3ccccc3oc2=O)c(C(=O)c2ccc(Cl)cc2)c1,IC50,[1],60.4 µM
same,IC50,[2],58 µM
same,IC50,[3],57.8 µM
same,IC50,[4],61.6 µM
same,IC50,[5],56.6 µM
same,IC50,[6],59.1 µM
Cc1ccc(OCC(=O)NNC(=O)c2cc3ccccc3oc2=O)c(C(=O)c2ccccc2)c1,IC50,[1],87 µM
same,IC50,[2],81.1 µM
same,IC50,[3],86.5 µM
same,IC50,[4],89.1 µM
same,IC50,[5],78.4 µM
same,IC50,[6],86.4 µM
Cc1ccc(OCC(=O)NNC(=O)c2cc3ccccc3oc2=O)c(C(=O)c2ccccc2Cl)c1,IC50,[1],54.4 µM
same,IC50,[2],47.6 µM
same,IC50,[3],48.4 µM
same,IC50,[4],54.8 µM
same,IC50,[5],45.2 µM
same,IC50,[6],53.8 µM
Cc1ccc(C(=O)c2cc(C)ccc2OCC(=O)NNC(=O)c2cc3ccccc3oc2=O)cc1,IC50,[1],87.2 µM
same,IC50,[2],81.4 µM
same,IC50,[3],82.6 µM
same,IC50,[4],87.3 µM
same,IC50,[5],78.1 µM
same,IC50,[6],84.6 µM
Cc1ccc(OCC(=O)NNC(=O)c2cc3ccccc3oc2=O)c(C(=O)c2ccccc2Br)c1,Time,[7],23 days
same,Activity,[8],10%
same,Activity,[9],Active
same,Activity,[10],Active
same,Activity,[11],Active
same,IC50,[1],10.6 µM
same,Activity,[12],Dose-dependent effect
same,Activity,[13],132.65 IU/L
same,Activity,[14],Active
same,inhibition,[15],Active
same,TGI,[16],Active
same,IC50,[2],9.4 µM
same,Activity,[17],Dose-dependent effect
same,TGI,[18],Active
same,Activity,[19],Active
same,Activity,[20],Active
same,Activity,[21],Active
same,Activity,[22],Active
same,fold change (FC),[23],3
same,Activity,[24],Active
same,Activity,[25],39 mg/dL
same,Activity,[26],0.5 mg/dL
same,IC50,[3],9 µM
same,IC50,[4],10 µM
same,inhibition,[27],Active
same,IC50,[5],8 µM
same,Activity,[28],Non-toxic
same,Activity,[29],Active
same,Activity,[30],Non-toxic
same,Activity,[31],Dose-dependent effect
same,IC50,[6],10 µM
Cc1ccc(OCC(=O)NNC(=O)c2cc3ccccc3oc2=O)c(C(=O)c2ccc(F)cc2)c1,IC50,[1],45.7 µM
same,IC50,[2],40.8 µM
same,IC50,[3],43.4 µM
same,IC50,[4],46.1 µM
same,IC50,[5],39.7 µM
same,IC50,[6],43.4 µM
COc1ccc(C(=O)c2cc(C)ccc2OCC(=O)NNC(=O)c2cc3ccccc3oc2=O)cc1,IC50,[1],43.4 µM
same,IC50,[2],41.2 µM
same,IC50,[3],41.2 µM
same,IC50,[4],43.5 µM
same,IC50,[5],38.4 µM
same,IC50,[6],42 µM
